We go through 1 compound from patent US9868705B2, “Tetra-aryl cyclobutane inhibitors of androgen receptor action for the treatment of hormone refractory cancer” (The Board of Trustees of the University of Illinois, priority 2013, dated 2018).

Series [1] concerns wild type androgen receptor. As to the kind of experiment: FKBP51 endogenous gene expression in LNCaP-AR cells (wild type AR overexpressed). Format: cell-based, human. To be noted: at 20 M (so in the source). The source says: FIG. 44 depicts data for dose-dependent inhibition of androgen receptor-dependent endogenous gene expression of FKBP51 by Compound 1 of Example IV in LNCaP cells producing exclusively T877A mutant androgen receptor (LNCaP-XIP) and LNCaP cells transfected with wild type androgen receptor (LNCaP-androgen receptor, ratio of wild type to T877A receptor is ca. 3:1).
To more fully characterize the selectivity of compound 1 for the mutant receptor, we measured its inhibitory potential against the WT and T877A mutant receptor in an AR-dependent luciferase transcription assay in CV-1 cells (FIGS. 43A and B).

For the next series, the target named is T1, wild type AR (Homo sapiens, UniProt P10275).
T1 construct: expressed in transfected cells; host or cells: CV-1
T1 sequence (P10275 1-920): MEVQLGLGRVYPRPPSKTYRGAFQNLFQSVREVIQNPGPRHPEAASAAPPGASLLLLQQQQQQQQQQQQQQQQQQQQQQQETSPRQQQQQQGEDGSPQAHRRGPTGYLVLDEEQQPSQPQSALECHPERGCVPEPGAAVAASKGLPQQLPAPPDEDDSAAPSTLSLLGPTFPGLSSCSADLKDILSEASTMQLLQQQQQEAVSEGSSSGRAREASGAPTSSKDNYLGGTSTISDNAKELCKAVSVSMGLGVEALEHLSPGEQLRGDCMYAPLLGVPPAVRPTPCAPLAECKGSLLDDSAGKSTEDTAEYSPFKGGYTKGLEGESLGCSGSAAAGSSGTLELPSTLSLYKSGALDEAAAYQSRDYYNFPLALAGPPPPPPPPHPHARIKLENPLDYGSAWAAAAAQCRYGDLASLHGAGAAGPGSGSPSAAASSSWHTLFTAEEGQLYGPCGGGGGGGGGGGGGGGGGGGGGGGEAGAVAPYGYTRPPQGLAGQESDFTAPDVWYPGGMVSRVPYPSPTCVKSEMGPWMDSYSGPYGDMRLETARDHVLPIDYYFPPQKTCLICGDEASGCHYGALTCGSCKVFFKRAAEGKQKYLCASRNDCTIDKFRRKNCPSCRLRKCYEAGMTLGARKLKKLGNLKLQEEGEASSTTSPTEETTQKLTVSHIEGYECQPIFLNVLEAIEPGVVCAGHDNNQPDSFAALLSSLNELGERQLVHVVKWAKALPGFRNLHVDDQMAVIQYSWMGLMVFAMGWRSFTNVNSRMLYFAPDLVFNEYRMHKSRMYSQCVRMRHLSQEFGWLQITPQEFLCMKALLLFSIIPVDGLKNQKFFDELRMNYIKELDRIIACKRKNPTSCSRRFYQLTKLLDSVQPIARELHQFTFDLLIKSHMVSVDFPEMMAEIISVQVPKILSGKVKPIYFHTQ
Description: MMTV-luciferase transcription assay in CV-1 cells, wild type AR. Format: cell-based. To be noted: wild type AR; values given in μM; read-out: MMTV transcription assay in CV-1 cells WT (IC50). The source says: These compounds were screened using an AR-responsive MMTV transcription assay in CV-1 cells, utilizing both wild type and T877A (LNCaP) AR. […]

For another series, the target named is T2, AR (Homo sapiens, UniProt P10275).
T2 sequence (P10275 1-920): T1 sequence (P10275 1-920)
Description: AR relative binding affinity (RBA).

The test system of another series is VCaP cells. Description: VCaP cell proliferation. The series is classed as cell-based.
The test system of series [2] is LNCaP and VCaP cell lines. As to the kind of experiment: General toxicity screen in LNCaP and VCaP cell lines. Format: cell-based, human. As to conditions: at concentrations as high as 25 μM.
The subject of another series is AR-VP16 construct. As to the kind of experiment: MMTV-luciferase reporter gene assay with AR-VP16 construct (AR/DNA binding). The series is classed as cell-based. The source says: (§1) Accordingly, we analyzed the disruption of AR/DNA binding using a luciferase reporter gene assay transfected with an AR-VP16 construct that is constitutively active upon DNA binding, regardless of the ability of AR to recruit transcriptional machinery (FIG. 40A). Simultaneously, we examined CV-1 cells transfected with an AR construct that is only transcriptionally active when there is a positive interaction between the NTD and C-terminal LBD ([…]) (FIG. 40B).

The next series deals with T3, AR NTD/LBD interaction (Homo sapiens, UniProt P10275).
T3 construct: expressed in transfected cells; host or cells: CV-1
T3 sequence (P10275 1-920): T1 sequence (P10275 1-920)
As to the kind of experiment: AR NTD/LBD interaction reporter assay in CV-1 cells. The series is classed as cell-based.
Source text: as §1

A further series concerns LNCaP cells. Description: LNCaP cell proliferation.
The next series has as its target T4, W741C AR (Homo sapiens, UniProt P10275, W742C).
T4 sequence (P10275 1-920 W742C): T1 sequence (P10275 1-920) with W742C
As to the kind of experiment: MMTV-luciferase transcription assay in CV-1 cells, W741C AR.

Substitutions are numbered along the chain they refer to.

Usually IC50 stands for the concentration that inhibits the measured activity by half. For the compound `COc1cc([C@H]2[C@H](c3ccccc3)[C@H](c3cc(OC)nc(OC)n3)[C@H]2c2ccccc2)nc(OC)n1` [CB-22], in [1], the “inhibition of FKBP51 gene expression” value is recorded as “approximately 50%”. Also, the IC50 is 18 µM at wild type AR and 2.36 µM against W741C AR. Also, at AR, the “AR RBA” value is listed as 0.056%. Further, in the series on VCaP cells, the “inhibition of VCaP cell proliferation” value is listed as “slow cell-growth in a dose-dependent manner”. In series [2], the toxicity result was “complete lack of toxicity”. The “inhibition of AR/DNA binding” value in the series on AR-VP16 construct is given as “inhibitory activity”. Moreover, the “inhibition of the NTD/LBD interaction” value at AR NTD/LBD interaction is recorded as “inhibitory activity”. Also, the “more potent in LNCaP cells than in VCaP cells (anti-proliferative activity)” value with LNCaP cells (LNCaP vs VCaP) is listed as 10-15 fold. Further, the “inhibition of LNCaP cell proliferation” value in the series with LNCaP cells (androgen-stimulated LNCaP cells) is recorded as “slow cell-growth in a dose-dependent manner”.
